The record followed here is article PMC8971525, “A New Strategy for Multitarget Drug Discovery/Repositioning Through the Identification of Similar 3D Amino Acid Patterns Among Proteins Structures: The Case of Tafluprost and its Effects on Cardiac Ion Channels” (Frontiers in Pharmacology, 2022).

Assay [1] addresses T1, NaV1.5 (Homo sapiens, UniProt Q14524).
T1 construct: gene SCN5A; human Nav1.5 (hH1, M77235) cRNA expressed in Xenopus laevis oocytes
The assay is described as follows: two-electrode voltage clamp in Xenopus oocytes, block of inward current. The format is cell-based.

The target of assay [2] is T2, TASK-1 (Homo sapiens, UniProt O14649).
T2 construct: gene KCNK3; human TASK-1 (KCNK3, NM_002246) cRNA expressed in Xenopus laevis oocytes
T2 sequence (O14649 whole entry): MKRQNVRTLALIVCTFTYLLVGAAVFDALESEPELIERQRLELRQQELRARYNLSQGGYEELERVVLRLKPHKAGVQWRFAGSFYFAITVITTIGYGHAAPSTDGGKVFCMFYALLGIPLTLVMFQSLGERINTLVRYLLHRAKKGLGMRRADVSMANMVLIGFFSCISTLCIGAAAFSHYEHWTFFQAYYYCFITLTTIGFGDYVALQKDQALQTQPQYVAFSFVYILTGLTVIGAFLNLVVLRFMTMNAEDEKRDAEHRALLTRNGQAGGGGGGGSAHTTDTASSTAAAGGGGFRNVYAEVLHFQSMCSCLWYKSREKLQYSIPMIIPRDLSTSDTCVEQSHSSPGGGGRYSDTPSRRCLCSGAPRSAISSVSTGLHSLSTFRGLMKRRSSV
The assay is described as follows: two-electrode voltage clamp in Xenopus oocytes, block of outward current. The class given is cell-based. In general terms: Two-electrode voltage clamp is typically applied to oocytes expressing channels or transporters.

T1 sequence (Q14524 whole entry): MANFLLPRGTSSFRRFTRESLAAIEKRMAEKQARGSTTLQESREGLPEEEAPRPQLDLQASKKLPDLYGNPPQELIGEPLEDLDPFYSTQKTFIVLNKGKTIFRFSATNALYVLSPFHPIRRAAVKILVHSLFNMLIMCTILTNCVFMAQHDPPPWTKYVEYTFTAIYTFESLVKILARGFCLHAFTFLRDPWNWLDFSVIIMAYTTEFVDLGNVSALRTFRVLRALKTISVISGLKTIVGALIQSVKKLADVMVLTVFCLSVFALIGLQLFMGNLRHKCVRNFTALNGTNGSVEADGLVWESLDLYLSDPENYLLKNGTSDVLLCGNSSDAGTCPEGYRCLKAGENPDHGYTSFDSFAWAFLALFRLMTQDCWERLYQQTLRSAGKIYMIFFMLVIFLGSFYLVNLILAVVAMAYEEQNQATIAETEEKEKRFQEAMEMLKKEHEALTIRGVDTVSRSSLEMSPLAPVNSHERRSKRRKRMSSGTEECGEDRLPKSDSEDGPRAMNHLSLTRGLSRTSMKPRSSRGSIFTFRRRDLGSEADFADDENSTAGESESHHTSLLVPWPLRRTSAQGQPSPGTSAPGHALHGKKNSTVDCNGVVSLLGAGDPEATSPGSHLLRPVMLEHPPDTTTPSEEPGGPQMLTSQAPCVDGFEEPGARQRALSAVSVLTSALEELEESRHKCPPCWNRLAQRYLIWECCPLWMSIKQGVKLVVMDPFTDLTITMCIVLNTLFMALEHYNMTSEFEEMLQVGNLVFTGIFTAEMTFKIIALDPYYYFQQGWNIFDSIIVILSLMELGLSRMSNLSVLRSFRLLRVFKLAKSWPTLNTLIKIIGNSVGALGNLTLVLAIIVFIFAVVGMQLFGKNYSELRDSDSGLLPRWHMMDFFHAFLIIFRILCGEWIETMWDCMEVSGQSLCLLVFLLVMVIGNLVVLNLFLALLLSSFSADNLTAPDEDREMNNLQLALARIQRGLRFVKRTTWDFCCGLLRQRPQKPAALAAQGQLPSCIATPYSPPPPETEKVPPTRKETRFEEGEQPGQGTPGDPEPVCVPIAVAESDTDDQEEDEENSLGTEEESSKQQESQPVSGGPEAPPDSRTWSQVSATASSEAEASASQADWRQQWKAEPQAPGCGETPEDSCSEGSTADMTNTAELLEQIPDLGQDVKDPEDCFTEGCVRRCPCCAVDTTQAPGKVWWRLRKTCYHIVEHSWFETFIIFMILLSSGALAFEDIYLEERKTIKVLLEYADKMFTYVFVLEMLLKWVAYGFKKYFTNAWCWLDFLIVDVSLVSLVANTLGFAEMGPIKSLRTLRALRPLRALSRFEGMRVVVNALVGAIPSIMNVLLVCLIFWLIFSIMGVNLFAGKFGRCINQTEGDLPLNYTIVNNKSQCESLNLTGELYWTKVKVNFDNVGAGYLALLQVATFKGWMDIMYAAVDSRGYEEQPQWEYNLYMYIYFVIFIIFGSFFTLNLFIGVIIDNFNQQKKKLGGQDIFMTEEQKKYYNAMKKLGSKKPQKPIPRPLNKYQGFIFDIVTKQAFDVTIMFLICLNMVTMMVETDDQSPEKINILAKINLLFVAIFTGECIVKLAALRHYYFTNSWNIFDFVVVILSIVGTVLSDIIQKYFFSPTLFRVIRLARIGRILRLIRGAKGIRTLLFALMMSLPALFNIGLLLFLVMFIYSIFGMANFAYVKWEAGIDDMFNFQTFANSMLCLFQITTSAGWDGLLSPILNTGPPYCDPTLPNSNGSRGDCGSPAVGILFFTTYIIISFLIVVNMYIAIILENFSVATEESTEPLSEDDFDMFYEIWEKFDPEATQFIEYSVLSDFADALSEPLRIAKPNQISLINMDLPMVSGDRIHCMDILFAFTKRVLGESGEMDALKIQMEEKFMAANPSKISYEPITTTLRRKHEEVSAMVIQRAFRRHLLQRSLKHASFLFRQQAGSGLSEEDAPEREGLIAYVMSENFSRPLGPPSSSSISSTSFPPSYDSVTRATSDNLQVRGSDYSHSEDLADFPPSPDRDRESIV

One may read the IC50 as the concentration that inhibits the measured activity by half. By EC50 is commonly meant the concentration needed to bring the measured effect to its halfway point. Regarding `CC(C)OC(=O)CCC/C=C\C[C@@H]1[C@@H](/C=C/C(F)(F)COc2ccccc2)[C@H](O)C[C@@H]1O` [tafluprost], the IC50 in assay [1] is ~76 µM. The compound also had an EC50 in assay [2] of 0.186 ± 0.04 µM.
